Reference: ChEMBL document CHEMBL1134149, “Discovery, total synthesis, HRV 3C-protease inhibitory activity, and structure-activity relationships of 2-methoxystypandrone and its analogues” (Bioorg Med Chem Lett, 2001)

Assays:
Papain = biological target: T1, Papain (Carica papaya, UniProt P00784); test: Inhibitory activity against papain using HPLC assay
T1 sequence (P00784 whole entry): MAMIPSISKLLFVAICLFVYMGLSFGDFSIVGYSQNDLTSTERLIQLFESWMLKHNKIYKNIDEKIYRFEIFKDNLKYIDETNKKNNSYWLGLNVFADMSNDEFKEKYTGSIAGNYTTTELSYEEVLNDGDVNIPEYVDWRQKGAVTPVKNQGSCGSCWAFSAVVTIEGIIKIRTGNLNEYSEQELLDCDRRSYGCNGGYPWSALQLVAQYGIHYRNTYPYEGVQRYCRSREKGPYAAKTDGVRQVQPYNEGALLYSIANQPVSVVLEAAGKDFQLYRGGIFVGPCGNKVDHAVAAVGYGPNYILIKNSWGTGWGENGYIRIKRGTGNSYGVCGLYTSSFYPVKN

Papain (Carica papaya) = biological target: T2, Papain (Carica papaya) (UniProt P00784); test: Percent inhibition against papain; conditions: concentration not given here
T2 sequence (whole entry): T1 sequence (P00784 whole entry)

Compound | IC50 (Papain) | inhibition (Papain (Carica papaya))
COC1=CC(=O)c2c(cc(C)c(C(C)=O)c2OC(C)=O)C1=O | 33 µM | –
COC1=CC(=O)c2c(cc(C)c(C(C)=O)c2O)C1=O | 23 µM | –
O=C1C=CC(=O)c2c1ccc1c2ccc2ccccc21 | 18 µM | 45%
O=C1C=Cc2ccccc2C1=O [1,2-NAPHTHOQUINONE] | 120 µM | 67%
O=C1C(=O)c2ccccc2-c2ccccc21 [9,10-PHENANTHRENEQUINONE] | 91 µM | 24%
O=C1C=CC(=O)c2ccccc21 [NAPHTHOQUINONE] | 29 µM | –
